Laboratory results reported in patent US20210055311A1, “SCREENING METHOD FOR ESTROGENIC AND ANTI-ESTROGENIC ACTIVITY” (BUNDESINSTITUT FÜR RISIKOBEWERTUNG, priority 2018, published 2021).
Entries after “also recorded” stand apart in the source; their conditions may differ.

Tests used:
Assay type in all cases: cell-based, human
[1] = test system: MCF7/vBOS cells (DSM ACC3321); test: Formation of discontinuous basolateral adherens junctions upon anti-estrogen exposure (E-Cadherin immunofluorescence); settings: for formation of discontinuous adherens junctions (E-Cadherin staining): concentration and incubation time per compound as in FIGS. 1-3
Source text: The time usually required for formation of discontinuous basolateral adherens junctions will depend on the estrogen receptor binding affinity and concentration of the anti-estrogen used on the one hand and the cell used on the other hand, but a person skilled in the art will be readily capable of determining the appropriate time spans and concentration for a given anti-estrogen and cell. For example, if the cell is a cell as deposited under accession number DSM ACC3321, suitable concentration ranges and culture times for manifestation of the discontinuous basolateral adherens junctions phenotype in presence of fulvestrant, tamoxifen, ZK 164015, MPP dihydrochloride, and (Z)-4-hydroxytamoxifen, without being limited thereto, are:
MCF7/vBOS cells were grown on glass coverslips in multi-well tissue culture plates (TPP) for 24 h and then treated for at least 48 h with 0.1% EtOH (solvent control) and different concentrations (10^−11 M, 10^−10 M, 10^−9 M, 10^−8 M, 10^−7 M) of the ERα antagonist fulvestrant (Sigma-Aldrich, CAS-No. 129453-61-8). During experiments, medium was exchanged on a daily basis. All experiments were performed at 37° C. with 5% CO2 in reduced-serum medium (phenol red-free DMEM (Gibco), 5% FBS (Biochrom, S 0615, LOT1353 W), 1% glutamine, 100 μg/ml streptomycin/100 U/ml penicillin (Biochrom)).
After treatment with fulvestrant the adherens junction morphology of the cells was analysed by means of immunofluorescence microscopy. Briefly, cells were fixed with 3.7% formaldehyde in PBS for 15 min, permeabilized with 0.2% Triton X-100 in PBS for 30 min, and blocked with 5% FBS in PBS for 60 min (all steps at room temperature). Incubation with primary and secondary antibodies in PBS containing 1.5% BSA was carried out over night at 4° C. and for 1 h at room temperature, respectively. The following antibodies/dyes were used: anti-E-Cadherin (H-108, Santa Cruz); DAPI (Roche); secondary antibody conjugated to Cy3 (alternatives are, e.g.: Cy2, Alexa Fluor 488/555/647; all Invitrogen). The samples were then mounted in Dako fluorescence mounting medium (Dako) or VectaShield (Vector Labs). All images were acquired with an Axio Observer.Z1 widefield microscope equipped with an Apotome.2 device for optical sectioning using structured illumination (Zeiss). After 48 hours the fraction of cells displaying discontinuous adherens junctions was determined by CellProfiler/CellProfer-analyst software (see example 7).
In view of the results obtained with MCF7/vBOS cells upon exposure to fulvestrant the inventors speculated that a similar phenotype might be obtainable with other ERα antagonist as well. To test this hypothesis, the inventors used the ERα antagonists tamoxifen (Sigma-Aldrich, CAS-No. 10540-29-1), MPP dihydrochloride (Sigma-Aldrich, CAS-No. 911295-24-4), ZK164015 (Tocris, CAS-No. 177583-70-9), and (Z)-4-hydroxytamoxifen (Tocris, CAS-No. 68047-06-3). The same protocols as in example 2 were used with the following deviations: • Tamoxifen: Cells were grown for 24 h and then treated for 144 h with 10^−8 and 10^−6 M tamoxifen. • MPP dihydrochloride: Cells were grown for 24 h and then treated for 144 h with 10^−8 and 10^−6 M MPP dihydrochloride. • ZK164015: Cells were grown for 24 h and then treated for 48 h with 10^−9 and 10^−7 M ZK164015. • (Z)-4-hydroxytamoxifen: Cells were grown for 24 h and then treated for 72 h with 10^−9 and 10^−8 M (Z)-4-hydroxytamoxifen.
Subsequently, quantitative image analysis was performed using a pipeline that builds on the CellProfiler software (Carpenter et al., Genome Biol., 2006; 7(10):R100.) for segmentation and extraction of cellular parameters, and on the CellProfiler Analyst software (Jones et al., BMC Bioinformatics, 2008 Nov. 15; 9:482) for parameter-based classification of cells. In the segmentation process, primary objects (nuclei) were identified from DAPI staining by global thresholding using Otsu's method. […]

[2] = test system: MCF-7/BOS cells; test: Adherens junction morphology upon fulvestrant in parental MCF-7/BOS cells; settings: 10^−8 M, 48 h
Experimental: Next, the inventors tried to reproduce the effects obtained with the cells as deposited under DSM ACC3321 with other conventional MCF-7 cells, namely MCF-7/BOS provided by Prof. Ana Soto (Tufts University School of Medicine, Boston, Mass., USA) and the MCF-7/ACC115 clone obtained from the Leibniz-Institut DSMZ-Deutsche Sammlung von Mikroorganismen and Zellkulturen GmbH (Braunschweig, Germany).
Briefly, the MCF-7 cells were seeded and grown on glass coverslips in multi-well tissue culture plates (TPP) for 24 h to reach near 100% confluence and then treated for at least 48 h with 0.1% EtOH (solvent control) and the ERα antagonist fulvestrant (Sigma-Aldrich, CAS-No. 129453-61-8) at a concentration of 10^−8 M. During experiments, medium was exchanged on a daily basis. All experiments were performed at 37° C. with 5% CO2 in reduced-serum medium (phenol red-free DMEM (Gibco), 5% FBS (Biochrom, S 0615, LOT1353 W), 1% glutamine, 100 μg/ml streptomycin/100 U/ml penicillin (Biochrom)).

[3] = test system: MCF-7/vBOS cells; test: Adherens junction stability: cell rounding after EGTA-containing medium (live imaging); settings: pre-treated 48 hours; EGTA 8×10^−3 M, 120 minutes; vs control cells
Experimental: FIG. 9 provides a CellProfiler/CellProfiler-Analyst-based quantification (analogous to FIG. 7) showing the rate of cell rounding over the course of 120 minutes in MCF7/vBOS cells pre-treated with fulvestrant for 48 hours (dotted bars) compared to solvent control cells (black bars). Indicated time points depict time after application of EGTA-containing medium (EGTA, 8×10^−3 M) to disrupt adherens junctions. Biological replicates, n=3. Error bars, mean+/−s.e.m. Statistical testing, one-way ANOVA with Sidak's correction for multiple comparisons; *, p<0.05; **, p<0.01; ***, p<0.005; ****, p<0.001. Scale bar, 50 μm.
In a further set of experiments, the inventors tested whether the anti-estrogen-mediated reorganization of adherens junctions likewise increased adherens junction stability in MCF-7/vBOS cells. Therefore, EGTA-containing medium (8×10^−3 M) was applied to both control cells and cells pre-treated for 48 hours with fulvestrant to disrupt homophilic E-Cadherin binding, and the fraction of rounded cells was monitored over the course of 120 minutes by live imaging. Quantification of rounded cells vs. non-rounded cells was done in analogous manner as described above in example 7 for quantification of continuous and discontinuous adherens junctions.

[4] = test system: MCF7/vBOS cells (DSM ACC3321); test: Formation of discontinuous basolateral adherens junctions upon anti-estrogen exposure (E-Cadherin immunofluorescence)
[5] = cell as deposited under DSM ACC3321

SMILES: C[C@]12CC[C@@H]3c4ccc(O)cc4C[C@@H](CCCCCCCCC[S+]([O-])CCCC(F)(F)C(F)(F)F)[C@H]3[C@@H]1CC[C@@H]2O (stereo partly drawn) [Fulvestrant]
- activity in this assay relative to tamoxifen, ZK164015, MPP or (Z)-4-hydroxytamoxifen [1]: more active
- time after treatment within which discontinuous adherence junctions form [1]: two
- time within which discontinuous basolateral adherens junctions have stably formed [1]: 28 to 48 h
- stability of discontinuous basolateral adherens junctions without adding additional anti-estrogens ([1]; after stable formation): ≥ 72 h
- Concentration (M) suitable for manifestation of the discontinuous basolateral adherens junctions phenotype [1, 5]: 10^−9-10^−7 M
- Culture time (h) typically required for formation of discontinuous basolateral adherens junctions [1, 5]: 24 to 96 h
- formation of discontinuous adherens junctions (E-Cadherin staining) [1]: triggers the formation of discontinuous adherence junctions
- formation of discontinuous adherens junctions (E-Cadherin staining) ([1]; listed as fulvestrant): formation of discontinuous adherens junctions; also recorded: morphology changes
- fraction of cells with continuous / discontinuous adherens junctions (CellProfiler quantification) ([1]; different concentrations, 48 hours): fraction of cells with continuous adherens junctions decreased while the fraction of cells with discontinuous adherens junctions increased
- minimal concentration for appearance of discontinuous adherens junctions ([1]; treatment for 48 hours, 10^−11 to 10^−7 M tested): 10^−9 M
- adherens junctions morphology in absence and presence of fulvestrant [2]: same continuous adherens junctions morphology
- rate of cell rounding [3]: significantly reduced
- change in adherens junctions morphology on staining β-Catenin, α-Catenin, p120-Catenin or cortical actin cytoskeleton ([4]; 10^−8 M, at least 48 h): also observable
- manifestation of phenotype after short exposure ([4]; exposure for only 2 hours, read after 48 hours in media w/o fulvestrant): lead to manifestation of the discontinuous basolateral adherens junctions phenotype
- stability of discontinuous adherens junctions independent of the presence of fulvestrant ([4]; fulvestrant 24 hours, then 24 or 48 hours in fulvestrant-free medium): at least 48
